# Literature values, collected in the PKSmart pharmacokinetics tables (Seal et al. 2025).
# Experiment: Lombardo, Berellini, Obach 2018, Drug Metab Dispos 46:1466, doi 10.1124/dmd.118.082966
# Details: human; for MRT / Vd / half-life / clearance: in vivo, iv; for fraction unbound: plasma
SMILES,MRT,Vd,half-life,clearance,fraction unbound
Cc1nc2c([nH]1)-c1ccccc1N(C(=O)c1ccc(NC(=O)c3ccccc3-c3ccccc3)cc1)CC2,4.2 h,0.76 L/kg,6.7 h,,
COc1ccccc1OC[C@H](O)CN1CCN(CC(=O)Nc2c(C)cccc2C)CC1,2.1 h,1.2 L/kg,1.8 h,9.5 mL/min/kg,0.38
CC(=O)O[C@@]12CO[C@@H]1C[C@H](O)[C@@]1(C)C(=O)C(=O)C3C(C)[C@@H](OC(=O)C(O)C(NC(=O)OC(C)(C)C)c4ccccc4)C[C@@](O)([C@@H](OC(=O)c4ccccc4)[C@H]21)C3(C)C (some centres not stated),2.5 h,2.1 L/kg,11 h,14 mL/min/kg,0.04
CCN(CC)C(=O)N[C@H]1C=C2c3cccc4[nH]cc(c34)C[C@H]2N(C)C1,2.17 h,1.73 L/kg,1.8 h,13.3 mL/min/kg,
CC(NC(CCc1ccccc1)C(=O)O)C(=O)N1Cc2ccccc2CC1C(=O)O (configuration not stated),2.3 h,0.13 L/kg,2.3 h,0.93 mL/min/kg,
CCNC(=O)CCC/C=C\C[C@@H]1[C@@H](/C=C\[C@@H](O)CCc2ccccc2)[C@H](O)C[C@@H]1O,,0.67 L/kg,0.45 h,25 mL/min/kg,0.12
CCn1cc(C(=O)O)c(=O)c2cc(F)c(N3CCN[C@@H](C)C3)c(F)c21,7.89 h,2.04 L/kg,8.1 h,3.98 mL/min/kg,
[H]/N=C(\N)c1cccc(CC(C(=O)OC)[C@@H](C)NC(=O)c2ccc(-c3cc[n+]([O-])cc3)cc2)c1 (some centres not stated),2.02 h,0.89 L/kg,3 h,7.38 mL/min/kg,
CC(=O)NC(CS)C(=O)O (configuration not stated),3 h,0.55 L/kg,5.5 h,3.1 mL/min/kg,0.17
CS(=O)(=O)c1ccc(C(=O)Nc2ccc(Cl)c(-c3ccccn3)c2)c(Cl)c1,341 h,,245 h,0.01 mL/min/kg,
COC(=O)NC(C(=O)N1CCC[C@H]1c1ncc(-c2ccc(-c3ccc(-c4cnc([C@@H]5CCCN5C(=O)C(NC(=O)OC)C(C)C)[nH]4)cc3)cc2)[nH]1)C(C)C (some centres not stated),11.2 h,0.67 L/kg,13.5 h,1 mL/min/kg,0.01
CCN(CC)c1ccc2cc(C(=O)Nc3ccc4[nH]c(C(=O)N5C[C@@H](CCl)c6c5cc(OC(=O)Nc5ccccc5)c5[nH]cc(C)c65)cc4c3)oc2c1,0.51 h,0.09 L/kg,0.48 h,2.9 mL/min/kg,
CCOCCn1c(C2CCN(CCc3ccc(C(C)(C)C(=O)O)cc3)CC2)nc2ccccc21,3.56 h,0.61 L/kg,5.16 h,2.87 mL/min/kg,0.13
OC[C@@H](O)[C@@H](O)[C@H](O)[C@H](O)CO,3.5 h,0.24 L/kg,4.7 h,1.2 mL/min/kg,
CCCCCc1cc(O)c2c(c1)OC(C)(C)c1ccc(C)cc1-2,15.9 h,17 L/kg,25.5 h,17.9 mL/min/kg,
C[C@@H](N)[C@H]1CC[C@@H](N)[C@@H](O[C@@H]2[C@@H](N)[C@@H](O)[C@@H](O)[C@@H](N(C)C(=O)CN)[C@H]2O)O1,3.3 h,0.27 L/kg,2.9 h,1.37 mL/min/kg,
NC(Cc1ccc(N(CCCl)CCCl)cc1)C(=O)O (configuration not stated),,,,,0.14
COc1cccc2c1C(=O)c1c(O)c3c(c(O)c1C2=O)C[C@@](O)(C(=O)CO)C[C@@H]3O[C@@H]1C[C@H](N)[C@H](O[C@@H]2CCCCO2)[C@H](C)O1,12.5 h,43.2 L/kg,11.1 h,57.7 mL/min/kg,
CC(C(=O)O)c1cccc(Oc2ccccc2)c1 (configuration not stated),2.8 h,0.1 L/kg,2.24 h,0.6 mL/min/kg,0.02
CC[C@H]1OC(=O)C(C)C(=O)C(C)[C@@H](O[C@@H]2O[C@H](C)C[C@H](N(C)C)[C@H]2O)[C@](C)(OC)CC(C)C(=O)C(C)[C@H]2N(CCCCn3cnc(-c4cccnc4)c3)C(=O)O[C@]12C (some centres not stated),3.6 h,3 L/kg,12 h,14 mL/min/kg,0.41
C/C=C(\C)C(=O)O[C@H]1[C@H](OC(C)=O)[C@]2(CO)[C@H](O)C[C@]3(C)C(=CC[C@@H]4[C@@]5(C)CC[C@H](O[C@@H]6OC(C(=O)O)[C@@H](O[C@@H]7O[C@H](CO)[C@@H](O)[C@H](O)[C@H]7O)[C@H](O)[C@H]6O[C@@H]6O[C@H](CO)[C@@H](O)[C@H](O)[C@H]6O)[C@](C)(CO)[C@@H]5CC[C@]43C)[C@@H]2CC1(C)C (some centres not stated),2.85 h,0.28 L/kg,2.4 h,1.65 mL/min/kg,
CC(C)NCC(O)c1ccc(O)c(O)c1 (configuration not stated),0.43 h,1.5 L/kg,0.41 h,56 mL/min/kg,0.71
CC(CN(C)C)CN1c2ccccc2CCc2ccccc21 (configuration not stated),17 h,16 L/kg,23 h,16 mL/min/kg,0.051

SMILES,MRT,Vd,half-life,clearance,fraction unbound
CN(C)CCCN1c2ccccc2CCc2ccccc21,,,,,0.075
Cc1nccn1CC1CCc2c(c3ccccc3n2C)C1=O (configuration not stated),5.2 h,1.8 L/kg,3.4 h,5.8 mL/min/kg,
NCC(=O)CCC(=O)O,1.06 h,0.12 L/kg,0.83 h,1.88 mL/min/kg,0.88
CCOc1cc([C@@H](CS(C)(=O)=O)N2C(=O)c3cccc(CC(C)=O)c3C2=O)ccc1OC,,,6.03 h,2.38 mL/min/kg,0.32
CC(C)n1c(/C=C/[C@H](O)C[C@H](O)CC(=O)O)c(-c2ccc(F)cc2)c2ccccc21,0.44 h,0.42 L/kg,0.7 h,,
COc1ccc(CC(C)(C)NC[C@H](O)c2cc(O)cc3c2OCC(=O)N3)cc1,22.2 h,15.8 L/kg,22.1 h,12.4 mL/min/kg,0.4
CCOC(=O)C1=C[C@]2(CC)CCCN3CCc4c(n1c1ccccc41)[C@@H]32,5.68 h,2.08 L/kg,4.83 h,6.1 mL/min/kg,0.02
CC(CCc1ccccc1)NCC(O)c1ccc(O)c(C(N)=O)c1 (configuration not stated),,,4.4 h,23 mL/min/kg,
CCC[C@H](Nc1nc(-c2ccc(NC(=O)NCC)c(OC)c2)ncc1C)c1cccnc1,2.5 h,3.41 L/kg,2.9 h,22.2 mL/min/kg,
Nc1n[n+]([O-])c2ccccc2[n+]1[O-],,,,,0.81
CO[C@@H]1C[C@@](C)(O)Cc2cc3c(c(O)c21)C(=O)c1c(O)cc2c(c1C3=O)O[C@@H]1O[C@]2(C)[C@@H](O)[C@@H](N(C)C)[C@@H]1O,13.1 h,9.14 L/kg,13.2 h,11.6 mL/min/kg,
CC1=C(CO)C2=C(C)C3(CC3)[C@@](C)(O)C(=O)C2=C1,0.4 h,3.1 L/kg,0.3 h,140 mL/min/kg,
COc1cccc2c1C(=N)c1c(O)c3c(c(O)c1C2=O)C[C@@](O)(C(=O)CO)C[C@@H]3O[C@H]1C[C@H](N)[C@H](O)[C@H](C)O1,17.2 h,15.4 L/kg,13.8 h,15 mL/min/kg,
CC(=O)O[C@H]1C[C@@H]2CC[C@@H]3[C@H](CC[C@@]4(C)[C@H]3C[C@H]([N+]3(C)CCCCC3)[C@@H]4OC(C)=O)[C@@]2(C)C[C@@H]1N1CCCCC1,1.1 h,0.3 L/kg,1.4 h,4.5 mL/min/kg,0.25
CC(C(O)c1ccc(O)cc1)N1CCC(Cc2ccccc2)CC1 (configuration not stated),4.9 h,19 L/kg,4.32 h,64.6 mL/min/kg,
NC1CCN(c2c(F)cc3c(=O)c(C(=O)O)cn(C4CC4)c3c2Cl)C1 (configuration not stated),6.7 h,1.9 L/kg,5.4 h,4.7 mL/min/kg,
CC(C(=O)O)c1ccc2c(c1)[nH]c1ccc(Cl)cc12 (configuration not stated),7.2 h,0.22 L/kg,9.9 h,0.51 mL/min/kg,0.001
COc1cccc2c(C(=O)N3CCN(C)C(C)C3)cn(CC3CCCCC3)c12 (configuration not stated),5.7 h,1 L/kg,4.2 h,3 mL/min/kg,
Cn1c(=O)c2c(ncn2CC2OCCO2)n(C)c1=O,2.5 h,1.03 L/kg,1.66 h,6.83 mL/min/kg,
O=C(O)CCCCON=C(c1cccnc1)c1cccc(C(F)(F)F)c1,6.8 h,0.43 L/kg,7.54 h,1.05 mL/min/kg,0.033
CO[C@@]1(NC(=O)C(C(=O)O)c2ccsc2)C(=O)N2C(C(=O)O)C(C)(C)S[C@@H]21 (some centres not stated),5.2 h,0.11 L/kg,4.1 h,0.34 mL/min/kg,0.21
COC1C(=O)C(C)C[C@H](C)/C=C/C=C/C=C(\C)[C@@H](OC)C[C@@H]2CC[C@@H](C)[C@@](O)(O2)C(=O)C(=O)N2CCCCC2C(=O)O[C@H]([C@H](C)C[C@@H]2CC[C@H](n3cnnn3)[C@H](OC)C2)CC(=O)C(C)=CC(C)[C@H]1O (some centres not stated),33 h,1.3 L/kg,35 h,0.67 mL/min/kg,0.26
Oc1ccc2c(c1)[C@@]13CCCC[C@@]1(O)[C@@H](C2)N(CC1CCC1)CC3,5.3 h,12 L/kg,4.8 h,41 mL/min/kg,0.17

SMILES,MRT,Vd,half-life,clearance,fraction unbound
Cn1nnc(-c2ccc(-c3ccc(N4C[C@H](CO)OC4=O)cc3F)cn2)n1,12.6 h,0.91 L/kg,10.2 h,1.19 mL/min/kg,0.11
Cc1cnc(NCCCN(C)C)c2c1[nH]c1ccc3cc(O)ccc3c12,11 h,11 L/kg,19 h,18 mL/min/kg,
CC(C)(C)c1nc(-c2cccc(NS(=O)(=O)c3c(F)cccc3F)c2F)c(-c2ccnc(N)n2)s1,3.8 h,0.65 L/kg,2.6 h,2.86 mL/min/kg,0.003
CC[C@@]1(O)C(=O)OCc2c1cc1n(c2=O)Cc2c-1nc1cc(F)c(C)c3c1c2[C@@H](N)CC3,7.6 h,0.44 L/kg,6.7 h,0.96 mL/min/kg,
C[N+]1(C)[C@@H]2CC(OC(=O)C(O)(c3cccs3)c3cccs3)C[C@H]1[C@@H]1O[C@@H]12 (some centres not stated),42.3 h,32 L/kg,,,0.28
Cc1[nH]c2ccccc2c1CCNCc1ccc(/C=C/C(O)=NO)cc1,,,13.1 h,10.2 mL/min/kg,0.1
CC(=O)Nc1ccc(OC[C@H](O)CNC(C)C)cc1,,,12.2 h,2.28 mL/min/kg,0.93
CC[C@H]1CN2CC[C@H]1C[C@@H]2[C@@H](O)c1ccnc2ccc(OC)cc12,11 h,2.8 L/kg,5.7 h,4.2 mL/min/kg,0.22
CC(C)NC[C@H](O)COc1ccc(O)cc1,3.23 h,4.28 L/kg,2.85 h,22.1 mL/min/kg,
c1ccc(C2(c3ccccc3)CC2C2=NCCN2)cc1 (configuration not stated),7.8 h,4.1 L/kg,7.3 h,8.6 mL/min/kg,
C[C@H]1COc2c(C3(N)CC3)c(F)cc3c(=O)c(C(=O)O)cn1c23,2.32 h,0.68 L/kg,2.1 h,4.87 mL/min/kg,0.79
COc1cc(OC)c(C(=O)CCCN2CCCC2)c(OC)c1,3.9 h,1.3 L/kg,3.3 h,5.6 mL/min/kg,
Cc1ccnc2c1NC(=O)c1cccnc1N2C1CC1,81 h,1.3 L/kg,53 h,0.3 mL/min/kg,
O=C(NC1CC[C@@H](c2cccc(F)c2F)CN(CC(F)(F)F)C1=O)N1CCC(n2c(=O)[nH]c3ncccc32)CC1 (some centres not stated),2.5 h,0.86 L/kg,8.2 h,5.8 mL/min/kg,
COc1cccc(OC)c1C(=O)NC1C(=O)N2C(C(=O)O)C(C)(C)S[C@H]12 (some centres not stated),0.8 h,0.32 L/kg,0.64 h,6.6 mL/min/kg,0.43
C=C(CC)C(=O)c1ccc(OCC(=O)O)c(Cl)c1Cl,0.5 h,0.26 L/kg,0.5 h,8.7 mL/min/kg,
O=C(NCCO[N+](=O)[O-])c1cccnc1,2.7 h,1.4 L/kg,3.6 h,8.9 mL/min/kg,0.76
CC(C)(C)NC[C@@H](O)COc1cccc2c1CCC(=O)N2,,,4.7 h,10.1 mL/min/kg,
CCn1cc(C(=O)O)c(=O)c2cnc(N3CCNCC3)nc21,5.15 h,0.88 L/kg,3.69 h,2.84 mL/min/kg,0.7
Cc1ccc(O)c([C@H](CCN(C(C)C)C(C)C)c2ccccc2)c1,3 h,1.5 L/kg,2.4 h,8.4 mL/min/kg,
C[C@@H]1C[C@H]2[C@@H]3C[C@H](F)C4=CC(=O)C=C[C@]4(C)[C@H]3[C@@H](O)C[C@]2(C)C1C(=O)CO (some centres not stated),1.6 h,0.68 L/kg,1.3 h,7 mL/min/kg,0.04
CN(C)CC(Oc1ccccc1)Oc1ccccc1,3.4 h,2.8 L/kg,4.4 h,13.7 mL/min/kg,
NC(Cc1c[nH]c2ccc(O)cc12)C(=O)O (configuration not stated),7.75 h,0.8 L/kg,6.14 h,1.72 mL/min/kg,
